According to article PMC2362906, “Effects of new 17α-hydroxylase/C17,20-lyase inhibitors on LNCaP prostate cancer cell growth in vitro and in vivo” (British Journal of Cancer, 1999):
Entries after “also recorded” stand apart in the source; their conditions may differ.

Experiments:
[1] = target: T1, human 17α-hydroxylase/C17,20-lyase (P450c17) expressed in LNCaP-CYP17 cells (Homo sapiens, UniProt P05093); test: [3H]-acetic acid releasing assay (AARA) with LNCaP-CYP17 cells; type: cell-based; conditions: for IC50: LNCaP-CYP17 cells, 7 μM [21-3H]17-OHP5, 16 h, mean ± s.e.m., three experiments
T1 sequence (P05093 9-508 limits assumed): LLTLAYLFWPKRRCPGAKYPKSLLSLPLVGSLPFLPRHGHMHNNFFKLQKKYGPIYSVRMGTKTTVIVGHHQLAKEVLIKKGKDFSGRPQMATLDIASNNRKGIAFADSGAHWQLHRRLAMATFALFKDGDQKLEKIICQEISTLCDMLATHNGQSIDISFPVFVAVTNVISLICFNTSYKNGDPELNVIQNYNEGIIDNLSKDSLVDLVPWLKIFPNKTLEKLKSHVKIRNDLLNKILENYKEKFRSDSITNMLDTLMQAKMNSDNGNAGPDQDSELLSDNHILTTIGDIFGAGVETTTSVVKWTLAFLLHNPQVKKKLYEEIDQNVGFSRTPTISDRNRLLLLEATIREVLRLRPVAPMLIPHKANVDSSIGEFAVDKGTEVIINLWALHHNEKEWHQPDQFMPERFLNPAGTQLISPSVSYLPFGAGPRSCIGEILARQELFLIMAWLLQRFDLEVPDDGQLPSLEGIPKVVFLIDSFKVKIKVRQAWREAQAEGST

LNCaP cells [2] = test: Testosterone-stimulated wild-type LNCaP cell growth; type: cell-based, human; conditions: 0.1 nM testosterone, 9 days; for Effect on testosterone-stimulated cell growth (words): 0.5-5.0 μM compound
Source text: (§1) Prostate cancer is the most common malignancy and the second leading cause of cancer-related deaths among men in the US and the UK (Shibata et al, 1998). […] Steroidal 17-hydroxylase/C17,20 -lyase (P450c17) (EC 1.14.99.0) was selected as the target enzyme for inhibition, as this is a key regulatory enzyme of androgen synthesis. P450c17 catal- yses two sequential reactions in the steroid biosynthetic pathway and converts pregnenolone and progesterone to the C-19 andro- gens, dehydroepiandrosterone and androstenedione respectively. This enzyme has an identical amino acid sequence in testicular and adrenal tissues (Chung et al, 1987). […] In order to evaluate the effectiveness of these inhibitors we developed a multi-step system, which utilized the LNCaP human prostate cancer cell line. LNCaP cells remain the only androgen receptor (AR)-positive prostate cancer cell line, that can be readily grown in tissue culture (Horoszewicz et al, 1983). These cells respond to androgens with increased cell proliferation and elevated expression of prostate specific antigen (PSA) (Berns et al, 1993). LNCaP cells at early passages are not only androgen-responsive, but also androgen- dependent (Pousette et al, 1997). This is similar to the situation in most tumours of prostatic cancer patients, which are initially highly responsive and dependent on androgens. […] Therefore, we employed LNCaP cells as a model for evaluating the effectiveness of our new inhibitors of androgen synthesis. In this study the compounds selected for evaluation were two groups of azolyl steroids. […] Here we report on the application of LNCaP-CYP17-transfected cells for determining the inhibitory potencies of the new compounds against the P450c17 enzyme. […] We designed and evaluated two groups of azolyl steroids: 5-non-competitive inhibitors (5NCIs), VN/63-1, VN/85-1, VN/87-1 and their corresponding 4 derivatives (4NCIs), VN/107-1, VN/108-1 and VN/109-1. The human P450c17 gene was transfected into LNCaP human prostate cancer cells, and the resultant LNCaP- CYP17 cells were utilized to evaluate the inhibitory potency of the new azolyl steroids. […] We further evaluated our inhibitors in male severe combined immuno- deficient mice bearing LNCaP tumour xenografts. […] We also utilized wild-type LNCaP prostatic carcinoma cells for evaluating the direct effects of new azolyl steroids on proliferation of these cells in vitro and in vivo. MATERIALS AND METHODS Materials The human prostate cancer cell line LNCaP was obtained from the American Type Culture Collection (Rockville, MD, USA). RPMI- 1640 medium, trypsin-EDTA (0.25%/0.02%), penicillin/strepto- mycin (P/S), geniticin (G418), and LipofectAMINE were from Gibco-BRL (Grand Island, NY, USA). Fetal bovine serum (FBS) was obtained from Summit Biotechnology Inc. (Fort Collins, CO, USA) and steroid-free FBS was prepared as described previously (Klus et al, 1996). Phenol red free IMEM and trypsin-versine were purchased from Biofluids Inc. (Rockville, MD, USA). Chloroform and acetonitrile were purchased from JT Baker, Inc (Phillipsburg, NJ, USA). Hydroxypropyl cellulose (HPC) was purchased from Sigma Chemical Co. (St Louis, MO, USA). The PSA enzyme- linked immunusorbent assay (ELISA) kit was from DSL Inc. (Webster, TX, USA). Matrigel was generously supplied by Dr Hynda Kleinman (NIH, Bethesda, MD, USA). Inhibitors of androgen synthesis: VN/63-1, VN/85-1, VN/87-1, VN/107-1, VN/108-1 and VN/109-1 were synthesized in our labo- ratory as previously described (Njar et al, 1998). […] Metribolone [17-methyl-3 H]-R1881 ([3 H]-R1881: specific activity 86 Ci mmol-1 ) was purchased from Dupont NEN (Boston, MA, USA).

LNCaP cells [3] = test: DHT-stimulated wild-type LNCaP cell growth; type: cell-based, human; conditions: 0.03 nM DHT, 9 days; for Effect on DHT-induced cell proliferation: 0.5-5.0 μM compound
Source text: as §1

LNCaP tumour xenografts = test: LNCaP tumour xenograft growth in male SCID mice; type: in vivo
Source text: as §1

serum testosterone = test: Serum testosterone (RIA) in SCID mice; type: in vivo, male SCID mice; conditions: 28 days of treatment, 50 mg kg-1 day-1
Source text: as §1

serum DHT = test: Serum DHT (RIA) in SCID mice; type: in vivo, male SCID mice; conditions: 28 days of treatment, 50 mg kg-1 day-1
Source text: as §1

[4] = target: human prostatic 5-reductase; set-up: method as in Njar et al, 1998; conditions: human prostatic microsomes; reported previously; ref Njar et al, 1998; cited from earlier work
serum PSA = test: Serum PSA (ELISA) in LNCaP tumour-bearing SCID mice; type: in vivo, male SCID mice; conditions: first experiment, 50 mg kg-1 day-1, 28 days
Source text: Prostate cancer is the most common malignancy and the second leading cause of cancer-related deaths among men in the US and the UK (Shibata et al, 1998). […] Steroidal 17-hydroxylase/C17,20 -lyase (P450c17) (EC 1.14.99.0) was selected as the target enzyme for inhibition, as this is a key regulatory enzyme of androgen synthesis. P450c17 catal- yses two sequential reactions in the steroid biosynthetic pathway and converts pregnenolone and progesterone to the C-19 andro- gens, dehydroepiandrosterone and androstenedione respectively. This enzyme has an identical amino acid sequence in testicular and adrenal tissues (Chung et al, 1987). […] In order to evaluate the effectiveness of these inhibitors we developed a multi-step system, which utilized the LNCaP human prostate cancer cell line. LNCaP cells remain the only androgen receptor (AR)-positive prostate cancer cell line, that can be readily grown in tissue culture (Horoszewicz et al, 1983). These cells respond to androgens with increased cell proliferation and elevated expression of prostate specific antigen (PSA) (Berns et al, 1993). LNCaP cells at early passages are not only androgen-responsive, but also androgen- dependent (Pousette et al, 1997). This is similar to the situation in most tumours of prostatic cancer patients, which are initially highly responsive and dependent on androgens. […] Therefore, we employed LNCaP cells as a model for evaluating the effectiveness of our new inhibitors of androgen synthesis. In this study the compounds selected for evaluation were two groups of azolyl steroids. […] Here we report on the application of LNCaP-CYP17-transfected cells for determining the inhibitory potencies of the new compounds against the P450c17 enzyme. […] We designed and evaluated two groups of azolyl steroids: 5-non-competitive inhibitors (5NCIs), VN/63-1, VN/85-1, VN/87-1 and their corresponding 4 derivatives (4NCIs), VN/107-1, VN/108-1 and VN/109-1. The human P450c17 gene was transfected into LNCaP human prostate cancer cells, and the resultant LNCaP- CYP17 cells were utilized to evaluate the inhibitory potency of the new azolyl steroids. […] We further evaluated our inhibitors in male severe combined immuno- deficient mice bearing LNCaP tumour xenografts. […] We also utilized wild-type LNCaP prostatic carcinoma cells for evaluating the direct effects of new azolyl steroids on proliferation of these cells in vitro and in vivo. MATERIALS AND METHODS Materials The human prostate cancer cell line LNCaP was obtained from the American Type Culture Collection (Rockville, MD, USA). RPMI- 1640 medium, trypsin-EDTA (0.25%/0.02%), penicillin/strepto- mycin (P/S), geniticin (G418), and LipofectAMINE were from Gibco-BRL (Grand Island, NY, USA). Fetal bovine serum (FBS) was obtained from Summit Biotechnology Inc. (Fort Collins, CO, USA) and steroid-free FBS was prepared as described previously (Klus et al, 1996). Phenol red free IMEM and trypsin-versine were purchased from Biofluids Inc. (Rockville, MD, USA). Chloroform and acetonitrile were purchased from JT Baker, Inc (Phillipsburg, NJ, USA). Hydroxypropyl cellulose (HPC) was purchased from Sigma Chemical Co. (St Louis, MO, USA). The PSA enzyme- linked immunusorbent assay (ELISA) kit was from DSL Inc. (Webster, TX, USA). Matrigel was generously supplied by Dr Hynda Kleinman (NIH, Bethesda, MD, USA). […]

[5] = second experiment, 50 mg kg-1 day-1, 28 days
[6] = Table 3, second experiment, control 0.205
[7] = Table 3, second experiment, control 239.2
[8] = first experiment, 50 mg kg-1 day-1, 28 days
[9] = Table 2, first experiment, control 1.043
[10] = Table 2, first experiment, control 243.8

| Structure (SMILES) | IC50 [1] [µM] | Concentration that completely inhibited the growth stimulatory effect of testosterone (LNCaP cells [2]) [µM] | Concentration that completely blocked DHT stimulation (LNCaP cells [3]) [µM] | Effect on tumour growth (words) (LNCaP tumour xenografts; [5]) | Serum Testosterone (serum testosterone; [6]) [ng/mL] | Serum DHT (serum DHT; [7]) [pg/mL] | IC50 [4] [µM] | Reduction of tumour weights compared to vehicle-treated mice (LNCaP tumour xenografts; [8]) [%] | Serum PSA levels versus control (serum PSA) | Serum Testosterone (serum testosterone; [9]) [ng/mL] | Serum DHT (serum DHT; [10]) [pg/mL] | Inhibition of LNCaP tumour growth (tumour volume) (LNCaP tumour xenografts; first experiment, 50 mg kg-1 day-1, 4 weeks) [%] | Effect on testosterone-stimulated cell growth (words) (LNCaP cells [2]) | Effect on DHT-induced cell proliferation (LNCaP cells [3]) | Effect on tumour growth (words) (LNCaP tumour xenografts; second experiment, 50 mg kg-1 day-1, 28 days, listed as VN/107) | Stimulation of LNCaP tumour growth compared to control mice (LNCaP tumour xenografts; [5]) [%] | Km ([1]; substrate 0.5-20 μM, 16 h, 37C, RADLIG software) [µM] |
| --- | --- | --- | --- | --- | --- | --- | --- | --- | --- | --- | --- | --- | --- | --- | --- | --- | --- |
| C[C@]12CC[C@H](O)CC1=CC[C@@H]1[C@@H]2CC[C@]2(C)C(n3cncn3)=CC[C@@H]12 [VN/63-1] | 0.0471 | 1.0 | 1.0 | Neither VN/63-1, VN/107 nor ketoconazole had any appreciable effects | 0.146 | 189.7 | > 5 |  |  |  |  |  |  |  |  |  |  |
| C[C@]12CC[C@H](O)CC1=CC[C@@H]1[C@@H]2CC[C@]2(C)C(n3ccnc3)=CC[C@@H]12 [VN/85-1] | 0.00125 ± 0.00044 | 1.0 | 1.0 |  |  |  | > 5 | 27 | significantly lower | 0.141 | 143.7 |  |  |  |  |  |  |
| C[C@]12CC[C@H](O)CC1=CC[C@@H]1[C@@H]2CC[C@]2(C)C(n3ccnn3)=CC[C@@H]12 [VN/87-1] | 0.00797 |  |  |  |  |  | > 5 | 31 | significantly lower | 0.343 | 128.6 | 33 |  |  |  |  |  |
| C[C@]12CCC(=O)C=C1CC[C@@H]1[C@@H]2CC[C@]2(C)C(n3cncn3)=CC[C@@H]12 [VN/107-1] | 0.0124 |  |  | no significant effects on tumour growth or tumour weights | 0.153 | 180.2 | 0.152 |  |  |  |  |  | ineffective against testosterone-stimulated cell growth | least effective inhibitors of androgen-induced cell pro- liferation | Neither VN/63-1, VN/107 nor ketoconazole had any appreciable effects |  |  |
| C[C@]12CCC(=O)C=C1CC[C@@H]1[C@@H]2CC[C@]2(C)C(n3ccnn3)=CC[C@@H]12 [VN/109-1] | 0.00539 |  |  |  |  | 228.4 | 0.198 |  |  |  |  |  | moderate inhibitory effect; also recorded: biphasic growth responses | least effective inhibitors of androgen-induced cell pro- liferation |  | 110 |  |
| CC(=O)[C@@]1(O)CC[C@H]2[C@@H]3CC=C4C[C@@H](O)CC[C@]4(C)[C@H]3CC[C@@]21C [[213 H]17-hydroxypregnenolone, [21-3 H]17-Hydroxypregnenolone, reference compound] |  |  |  |  |  |  |  |  |  |  |  |  |  |  |  |  | 0.87 |
